Paper PMC5706701, “Development of a homogenous high-throughput assay for inositol hexakisphosphate kinase 1 activity” (PLoS ONE, 2017)
Read-outs that look alike come from different tables or passages of the source.

Molecular target: T1, Human IP6K1 (Homo sapiens, UniProt Q92551)
T1 construct: GST (N, cleaved yes); made in house; host or cells: C43 E. coli, pGEX-6P-2
Experiment: IP6K1 high-throughput screen of the Sigma LOPAC (ADP-Glo Max, single point);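 note: final compound concentration 10µM in 5% DMSO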
Type: biochemical

[1] = Sigma LOPAC single-point screen, ADP-Glo Max raw signal per well
[2] = Sigma LOPAC single-point screen, Z-score from plate average and StDev
[3] = LOPAC single-point screen, ADP-Glo Max raw signal per well
[4] = LOPAC single-point screen, Z-score against plate average and StDev
[5] = LOPAC single-point screen, ADP-Glo Max luminescence raw signal per well
[6] = LOPAC single-point screen, Z-score relative to plate average and StDev
[7] = LOPAC single-point screen, Z-score from plate average and StDev
[8] = LOPAC single-point screen, Z-score from raw signal with plate average and StDev

T1 sequence (Q92551 whole entry): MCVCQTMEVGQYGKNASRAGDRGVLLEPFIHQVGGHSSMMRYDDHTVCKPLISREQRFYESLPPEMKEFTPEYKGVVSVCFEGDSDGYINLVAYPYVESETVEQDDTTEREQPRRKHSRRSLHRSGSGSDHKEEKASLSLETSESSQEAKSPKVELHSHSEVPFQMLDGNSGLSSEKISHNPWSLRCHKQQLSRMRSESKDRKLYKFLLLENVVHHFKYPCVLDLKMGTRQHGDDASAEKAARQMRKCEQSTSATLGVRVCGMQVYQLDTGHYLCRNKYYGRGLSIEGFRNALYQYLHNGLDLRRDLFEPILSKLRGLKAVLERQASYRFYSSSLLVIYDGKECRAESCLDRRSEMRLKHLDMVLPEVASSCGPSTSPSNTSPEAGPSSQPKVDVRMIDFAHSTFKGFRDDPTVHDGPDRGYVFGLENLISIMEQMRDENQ

With C=CCn1c(=O)c2c(nc(-c3ccc(S(=O)(=O)O)cc3)n2C)n(C)c1=O the “Raw Signal” value [1] was 65523 and the Z-score [2] was 1.34.
With Cl.NC1(C(=O)O)CC1 the “Raw Signal” value [1] was 65481 and the Z-score [2] was 1.333.
With Cl.Cl.Clc1cccc(N2CCNCC2)c1 the “Raw Signal” value [1] was 60295 and the Z-score [2] was 0.4195.
COc1ccc2c(c1)c(CC(=O)O)c(C)n2Cc1ccc(Cl)cc1 was tested, and the “Raw Signal” value [1] was 64773 and the Z-score [2] was 1.208.
In the case of Br.Br.N=C(N)SCCN, the “Raw Signal” value [3] is reported as 59514 and the Z-score [4] is reported as 0.282.
For C[C@H]1CCC/C=C/[C@@H]2C[C@H](O)C[C@H]2[C@H](O)/C=C/C(=O)O1, the “Raw Signal” value [1] was 59928 and the Z-score [2] was 0.3549.
With CCc1c(C(=O)OC)ncc2[nH]c3cc(OC)c(OC)cc3c12 the “Raw Signal” value [1] was 57006 and the Z-score [2] was 0.3735.
For Cl.NCCCCNS(=O)(=O)c1ccc2c(Cl)cccc2c1, the “Raw Signal” value [3] was 59537 and the Z-score [4] was 0.286.
Cc1ccc(S(=O)(=O)N[C@@H](Cc2ccccc2)C(=O)CCl)cc1 was tested, and the “Raw Signal” value [1] was 59222 and the Z-score [2] was 0.6213.
COC(=O)[C@@H](N)CCCN=C(N)N[N+](=O)[O-].Cl was tested, and the “Raw Signal” value [1] was 58464 and the Z-score [2] was 0.6839.
For CCCCCCN(CCCCCC)C(=O)Cc1c(-c2ccc(F)cc2)[nH]c2ccccc12, the “Raw Signal” value [3] was 56591 and the Z-score [4] was 0.2892.
With CCCN(CCC)CCc1c[nH]c2ccc(C(N)=O)cc12.O=C(O)/C=C\C(=O)O the “Raw Signal” value [1] was 60214 and the Z-score [2] was 1.025.
CC(Cc1ccc(O)c(O)c1)C(C)Cc1ccc(O)c(O)c1 (centres unmarked) was tested, and the “Raw Signal” value [3] was 56278 and the Z-score [4] was 0.3166.
With CN[C@H](CC(C)C)C(=O)N[C@H]1C(=O)N[C@@H](CC(N)=O)C(=O)N[C@H]2C(=O)N[C@H]3C(=O)N[C@H](C(=O)N[C@H](C(=O)O)c4cc(O)cc(O)c4-c4cc3ccc4O)[C@H](O)c3ccc(c(Cl)c3)Oc3cc2cc(c3O[C@@H]2O[C@H](CO)[C@@H](O)[C@H](O)[C@H]2O[C@H]2C[C@](C)(N)[C@H](O)[C@H](C)O2)Oc2ccc(cc2Cl)[C@H]1O.Cl the “Raw Signal” value [1] was 61643 and the Z-score [2] was 1.0917.
In the case of 5-Bromo-2 -deoxyuridine, the “Raw Signal” value is reported as 57175 and the Z-score is reported as -0.13.
For 17alpha-hydroxyprogesterone, the “Raw Signal” value [1] was 57278 and the Z-score [2] was 0.4287.
For CCOC(=O)[C@]12CC1/C(=N\O)c1ccccc1O2 (mixture of isomers) [CPCCOEt], the “Raw Signal” value [3] was 59801 and the Z-score [4] was 0.3325.
For Cl.NCCC[C@](N)(C(=O)O)C(F)F (racemic), the “Raw Signal” value [5] was 51967 and the Z-score [6] was -0.6499.
COC(=O)C(N)Cc1ccc(Cl)cc1.Cl (racemic) was tested, and the “Raw Signal” value [5] was 67025 and the Z-score [7] was 1.605.
CC(N)c1cccc(Cl)c1Cl.Cl (racemic) was tested, and the “Raw Signal” value [3] was 54173 and the Z-score [8] was -0.2019.
With CC(N)(Cc1ccc(O)c(O)c1)C(=O)O (racemic) the “Raw Signal” value [5] was 41540 and the Z-score [6] was -2.16.
O=C(O)[C@H]1CCCN[C@H]1C(=O)O (racemic) was tested, and the “Raw Signal” value [1] was 60739 and the Z-score [2] was 0.9161.
For CCCCCCCCCC(=O)N[C@H](CN1CCOCC1)[C@H](O)c1ccccc1.Cl (racemic), the “Raw Signal” value [1] was 58472 and the Z-score [2] was 0.4756.
For COC(=O)C(C)(N)Cc1ccc(O)cc1.Cl (racemic), the “Raw Signal” value [3] was 52897 and the Z-score [8] was -0.2515.
In the case of CCCCCCCCCCCCCCCC(=O)NCC(COP(=O)([O-])OCC[N+](C)(C)C)OCC (racemic), the “Raw Signal” value [5] is reported as 63126 and the Z-score [7] is reported as 1.616.
CCCCCCCCCCCCCCCCCC(=O)NCC(COP(=O)([O-])OCC[N+](C)(C)C)OCC (racemic) was tested, and the “Raw Signal” value [5] was 62966 and the Z-score [7] was 1.584.
For NC(CP(=O)(O)O)C(=O)O (racemic) [(±)-2-Amino-3-phosphonopropionic acid], the “Raw Signal” value [5] was 53469 and the Z-score [6] was -0.7827.
NC(CCP(=O)(O)O)C(=O)O (racemic) [(±)-2-Amino-4-phosphonobutyric acid] was tested, and the “Raw Signal” value [3] was 55594 and the Z-score [8] was -0.4085.
For NC(CCCP(=O)(O)O)C(=O)O (racemic) [(±)-2-Amino-5-phosphonopentanoic acid], the “Raw Signal” value [1] was 60299 and the Z-score [2] was 0.4202.
NC(CCCCCP(=O)(O)O)C(=O)O (racemic) [(±)-2-Amino-7-phosphonoheptanoic acid] was tested, and the “Raw Signal” value was 66212 and the Z-score was 1.462.
Br.Oc1cc2c(c(Cl)c1O)CCNCC2c1ccccc1 (racemic) [(±)-6-Chloro-PB hydrobromide] was tested, and the “Raw Signal” value [3] was 55203 and the Z-score [8] was -0.1595.
In the case of Br.CCCN(CCC)C1CCc2ccc(O)cc2C1 (racemic) [(±)-7-Hydroxy-DPAT hydrobromide], the “Raw Signal” value [3] is reported as 55055 and the Z-score [4] is reported as -0.02275.
In the case of Br.CCCN(CCC)C1CCc2cccc(O)c2C1 (racemic) [(±)-8-Hydroxy-DPAT hydrobromide], the “Raw Signal” value [3] is reported as 55597 and the Z-score [4] is reported as 0.08732.
With Br.Cc1o[nH]c(=O)c1CC(N)C(=O)O (racemic) [(±)-AMPA hydrobromide] the “Raw Signal” value [3] was 54656 and the Z-score [8] was -0.1038.
CC1CCN=C(N)S1.Cl (racemic) [(±)-AMT hydrochloride] was tested, and the “Raw Signal” value [1] was 65458 and the Z-score [2] was 1.329.
CC(C)NCC(O)COc1ccc(CC(N)=O)cc1 (racemic) [(±)-Atenolol] was tested, and the “Raw Signal” value [3] was 56468 and the Z-score [8] was -0.2545.
For NCC(CC(=O)O)c1ccc(Cl)cc1 (racemic) [(±)-Baclofen], the “Raw Signal” value [1] was 65373 and the Z-score [2] was 1.3139.
In the case of COC(=O)C1=C(C)NC(C)=C([N+](=O)[O-])C1c1ccccc1C(F)(F)F (racemic) [(±)-Bay K 8644], the “Raw Signal” value [5] is reported as 52853 and the Z-score [6] is reported as -0.8912.
In the case of CN(C)CCC(c1ccc(Br)cc1)c1ccccn1.O=C(O)/C=C\C(=O)O (racemic) [(±)-Brompheniramine maleate], the “Raw Signal” value [3] is reported as 59748 and the Z-score [4] is reported as 0.3232.
With CC(C)(C)C1(O)CCN2CC3c4ccccc4CCc4cccc(c43)C2C1.Cl (racemic) [(±)-Butaclamol hydrochloride] the “Raw Signal” value [1] was 57693 and the Z-score [2] was 0.513.
With CC(C)(C)NCC(O)COc1cccc2[nH]c(=O)[nH]c12.Cl (racemic) [(±)-CGP-12177A hydrochloride] the “Raw Signal” value [1] was 57688 and the Z-score [2] was 0.512.
With O=C(O)C1CN(CCCP(=O)(O)O)CCN1 (racemic) [(±)-CPP] the “Raw Signal” value [1] was 59493 and the Z-score [2] was 0.8786.
In the case of Br.C=CCN1CCc2c(cc(O)c(O)c2Cl)C(c2ccccc2)C1 (racemic) [(±)-Chloro-APB hydrobromide], the “Raw Signal” value [1] is reported as 58189 and the Z-score [2] is reported as 0.6137.
In the case of CN(C)CCC(c1ccc(Cl)cc1)c1ccccn1.O=C(O)/C=C\C(=O)O (racemic) [(±)-Chlorpheniramine maleate], the “Raw Signal” value [1] is reported as 60371 and the Z-score [2] is reported as 0.4329.
For COc1cc(CC(C)N)c(OC)cc1I.Cl (racemic) [(±)-DOI hydrochloride], the “Raw Signal” value [5] was 52125 and the Z-score [6] was -0.6178.
For CNCC(O)c1ccc(O)c(O)c1.Cl (racemic) [(±)-Epinephrine hydrochloride], the “Raw Signal” value was 49297 and the Z-score was -1.192.
NC1CCN(O)C1=O (racemic) [(±)-HA-966] was tested, and the “Raw Signal” value [3] was 57782 and the Z-score [4] was -0.02309.
N[C@H](C(=O)O)c1cc(O)no1 (racemic) [(±)-Ibotenic acid] was tested, and the “Raw Signal” value [1] was 57640 and the Z-score [2] was 0.5455.
CC(C)Cc1ccc(C(C)C(=O)O)cc1 (racemic) [(±)-Ibuprofen] was tested, and the “Raw Signal” value [1] was 57086 and the Z-score [2] was 0.4524.
